# According to patent US20240376051A1, “CRYSTALLINE FORM OF PYRROLE AMIDE COMPOUND, PREPARATION METHOD THEREFOR AND USE THEREOF” (SUNSHINE LAKE PHARMA CO., LTD., priority 2021, published 2024):
# Where two headings read alike, the source gives them in different places.
# Columns and labels:
# [1] = Pharmacokinetic experiment, oral capsule in Beagle dogs; type: in vivo; details: 5 mg/kg; for AUClast / Cmax / Tmax: male Beagle dogs
# Experimental: The crystalline form I prepared by referring to any method of Example 2 was filled into capsules, which are used for oral administration.
# 8-12 kg Male Beagle dogs were divided into 2 groups, and 3 in each group. Each Beagle dog was orally administered the capsule containing the test sample at a dose of 5 mg/kg, and blood was collected at time points of 0.25, 0.5, 1.0, 2.0, 4.0, 6.0, 8.0 and 24 hours. Standard curve was plotted based on concentrations of the samples in a suitable range, the concentration of the test sample in the plasma sample was measured and quantified by AB SCIEX API4000 LC-MS/MS at MRM mode. Pharmacokinetic parameters were calculated according to drug concentration-time curve using a noncompartmental method by WinNonLin 6.3 software.
# A pharmacokinetic experiment of the amorphous form prepared with reference to Example 1 was carried out according to the above method, and the results are shown in Table 1.
# [2] = Stability experiment: high temperature test; type: physicochemical; details: for Appearance / Total impurity %: 60°C±2°C; for Total impurity %: HPLC
# Experimental: (§1) Test samples: crystalline form I was prepared by referring to any method of Example 2, and amorphous form was prepared by referring to Example 1.
# The following tests of test samples were carried out: • (1) High temperature test: an appropriate amount of the test sample was taken into a flat weighing bottle, spread into a thin layer with a thickness of ≤5 mm. The samples were placed at 60° C.±2° C. for 30 days. The samples were taken for testing according to the key stability inspection items on the 5th, 10th, and 30th day. The color change of the samples was observed. The purity of the samples was determined by HPLC.
# [3] = Stability experiment: high humidity test; type: physicochemical; details: for Appearance / Total impurity %: 25°C, RH 90%±5%; for Total impurity %: HPLC
# Experimental: as §1
# • (2) High humidity test: an appropriate amount of the test sample was taken into a flat weighing bottle, spread into a thin layer with a thickness of ≤5 mm. The samples were placed at 25° C. and RH for 90%±5% for 30 days. The samples were taken for testing according to the key stability inspection items on the 5th, 10th, and 30th day. The color change of the samples was observed. The purity of the samples was determined by HPLC.
# [4] = Stability experiment: light test; type: physicochemical; details: for Appearance / Total impurity %: 25°C, white light 4990 lux; for Total impurity %: HPLC
# Experimental: as §1
# • (3) Light test: an appropriate amount of the test sample was taken into a flat weighing bottle, spread into a thin layer with a thickness of ≤5 mm. The samples were placed in a light box (with a UV lamp) and placed under the conditions of 25° C., white light 4990 lux, and UV 1.4 W·h/m^2 for 30 days. The samples were taken for testing on the 5th, 10th, and 30th day. The color change of the samples was observed. The purity of the samples was determined by HPLC.
# [5] = Stability experiment: accelerated test; type: physicochemical; details: for Total impurity % / Appearance: 40±2°C/75%±5% RH; for Total impurity %: HPLC; for Appearance: PE package plus aluminum foil
# Experimental: as §1
# • (4) Accelerated test: an appropriate amount of crystalline form I test samples in a single-layer PE package plus aluminum foil packaging was stored for 6 months under the conditions of 40±2° C./75%±5% RH. Samples were taken for testing in the 1st, 2nd, 3rd and 6th month. The color change of the samples was observed. The purity of the samples was determined by HPLC.
# [6] = Hygroscopicity experiment (dynamic moisture adsorption, DVS); type: physicochemical; details: for The hygroscopicity feature: Chinese Pharmacopoeia 2020 definition, 25°C±1°C, 80%±2% relative humidity; for Weight gain at 60% relative humidity/% / Weight gain at 80% relative humidity/% / Weight gain at 95% relative humidity/%: DVS, 25°C
# Experimental: The hygroscopicity of the present invention was measured by a DVS INT-Std dynamic moisture and gas adsorption analyzer from Surface Measurement Systems, UK. The humidity test range: 0%-95%, air flow: 200 mL/min, temperature: 25° C., test point: every 5% increase in humidity to take a test point.
# Test samples: crystalline form I prepared by referring to any method of Example 2, and amorphous form prepared by referring to Example 1.
# An appropriate amount of the test sample was taken, and the hygroscopicity was tested by a dynamic moisture adsorption device. The description of the hygroscopicity feature and the definition of the hygroscopicity gain (Chinese Pharmacopoeia 2020 edition. Appendix 9103 Guidelines for drug dampness test, experimental, conditions: 25° C.±1° C. 80%±2% relative humidity) as described in Table 6 below: […]
smiles,measurement,setting,value
"Cc1c(C(=O)Nc2ccc(S(C)(=O)=O)c(F)c2)cn(CCO)c1-c1ccccc1C(F)(F)F [Crystalline form I, (S)-1-(2-hydroxyethyl)-4-methyl-N-(3-fluoro-4-(methylsulfonyl)phenyl)-5-(2-(trifluoromethyl)phenyl)-1H-pyrrole-3-carboxamide]",exposure and blood drug concentration compared with the amorphous form,[1]; Beagle dogs,higher exposure and blood drug concentration than the amorphous form
same,AUClast,[1],42300 ng·h/mL
same,Cmax,"[1]; male, Beagle, dog, plasma, po, read-out: Cmax",1450 ng/mL
same,Tmax,"[1]; male, Beagle, dog, plasma, po, read-out: Tmax",4 h
same,Appearance,[2]; 0 day,White
same,Total impurity %,[2]; 0 day,0.34%
same,Appearance,[2]; 5 days,White
same,Total impurity %,[2]; 5 days,0.36%
same,Appearance,[2]; 10 days,White
same,Total impurity %,[2]; 10 days,0.34%
same,Appearance,[2]; 30 days,White
same,Total impurity %,[2]; 30 days,0.34%
same,change of appearance and purity,"[2]; high temperature (60°C), 30 days",no obvious changes
same,Appearance,[3]; 0 day,White
same,Total impurity %,[3]; 0 day,0.34%
same,Appearance,[3]; 5 days,White
same,Total impurity %,[3]; 5 days,0.35%
same,Appearance,[3]; 10 days,White
same,Total impurity %,[3]; 10 days,0.36%
same,Appearance,[3]; 30 days,White
same,Total impurity %,[3]; 30 days,0.34%
same,change of appearance and purity,"[3]; high humidity (25°C, RH 90%±5%), 30 days",no obvious changes
same,Appearance,"[4]; UV 1.4 W·h/m^2, 0 day",White
same,Total impurity %,"[4]; UV 1.4 W·h/m^2, 0 day",0.34%
same,Appearance,"[4]; UV 1.4 W·h/m^2, 5 days",White
same,Total impurity %,"[4]; UV 1.4 W·h/m^2, 5 days",0.34%
same,Appearance,"[4]; UV 1.4 W·h/m^2, 10 days",White
same,Total impurity %,"[4]; UV 1.4 W·h/m^2, 10 days",0.32%
same,Appearance,"[4]; UV 1.4 W·h/m^2, 30 days",White
same,Total impurity %,"[4]; UV 1.4 W·h/m^2, 30 days",0.49%
same,change of appearance and purity,"[4]; light, 30 days",no obvious changes
same,Total impurity %,[5]; 0 day,0.78%
same,Total impurity %,[5]; 1 month,0.72%
same,Total impurity %,[5]; 2 months,0.73%
same,Total impurity %,[5]; 3 months,0.73%
same,Total impurity %,[5]; 6 months,0.71%
same,Appearance,[5]; 0 day,White
same,Appearance,[5]; 1 month,White
same,Appearance,[5]; 2 months,White
same,Appearance,[5]; 3 months,White
same,Appearance,[5]; 6 months,White
same,change of appearance and purity,"[5]; accelerated test conditions, 6 months",do not change significantly
same,The hygroscopicity feature,[6],no or almost no hygroscopicity
same,Weight gain at 60% relative humidity/%,[6],0.120%
same,Weight gain at 80% relative humidity/%,[6],0.185%
same,Weight gain at 95% relative humidity/%,[6],0.304%
"Cc1c(C(=O)Nc2ccc(S(C)(=O)=O)c(F)c2)cn(CCO)c1-c1ccccc1C(F)(F)F [Amorphous form, (S)-1-(2-hydroxyethyl)-4-methyl-N-(3-fluoro-4-(methylsulfonyl)phenyl)-5-(2-(trifluoromethyl)phenyl)-1H-pyrrole-3-carboxamide]",AUClast,[1],20900 ng·h/mL
same,Cmax,[1],913 ng/mL
same,Tmax,[1],3.33 h
same,Appearance,[2]; 0 day,Off-white
same,Total impurity %,[2]; 0 day,0.40%
same,Appearance,[2]; 5 days,Off-white
same,Total impurity %,[2]; 5 days,0.46%
same,Appearance,[2]; 10 days,Off-white
same,Total impurity %,[2]; 10 days,0.55%
same,Appearance,[2]; 30 days,Off-white
same,Total impurity %,[2]; 30 days,1.28%
same,Appearance,[3]; 0 day,Off-white
same,Total impurity %,[3]; 0 day,0.40%
same,Appearance,[3]; 5 days,Off-white
same,Total impurity %,[3]; 5 days,0.47%
same,Appearance,[3]; 10 days,Off-white
same,Total impurity %,[3]; 10 days,0.53%
same,Appearance,[3]; 30 days,Off-white
same,Total impurity %,[3]; 30 days,0.57%
same,Appearance,"[4]; UV 1.4 W·h/m^2, 0 day",Off-white
same,Total impurity %,"[4]; UV 1.4 W·h/m^2, 0 day",0.40%
same,Total impurity %,"[4]; UV 1.4 W·h/m^2, 5 days",0.85%
same,Total impurity %,"[4]; UV 1.4 W·h/m^2, 10 days",1.79%
same,Total impurity %,"[4]; UV 1.4 W·h/m^2, 30 days",3.47%
same,The hygroscopicity feature,[6],slight hygroscopicity
same,Weight gain at 60% relative humidity/%,[6],1.401%
same,Weight gain at 80% relative humidity/%,[6],1.826%
same,Weight gain at 95% relative humidity/%,[6],2.707%
